Measured values: PubChem BioAssay AID1918943 (Molecular Pharmacology Branch, DTP, NCI, 2023)
Values joined by “and” are separate entries in the source; they are usually repeats but may differ in a detail not shown here. Identical values can stand only once.

System: 855422-203-R-J1-PDC complex spheroid viability
Experiment: Anticancer human tumor 855422-203-R-J1-PDC patient-derived bladder carcinoma cell line growth inhibition
Conditions: for viability, T/C: stronger effect = lower value
Method in brief: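 Multicellular complex spheroids of tumor cells with human endothelial cells (HUVEC) and mesenchymal stem cells; the LSD1 inhibitor iadademstat was combined with standard-of-care or investigational agents. Top concentration at or near clinical Cmax, half-log dilutions; final DMSO ≤0.25%.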

[1] = curve of first compound, second compound 0.1 µM
[2] = curve of first compound, second compound 0.316 µM
[3] = curve of first compound, second compound 1 µM
[4] = curve of first compound, second compound 3.16 µM
[5] = curve of first compound, second compound 10 µM
[6] = second compound 0.1 µM, first compound 0.00949 µM
[7] = second compound 0.1 µM, first compound 0.03 µM
[8] = second compound 0.1 µM, first compound 0.0949 µM
[9] = second compound 0.1 µM, first compound 0.3 µM
[10] = second compound 0.1 µM, first compound 0.949 µM
[11] = second compound 0.1 µM, first compound 3 µM
[12] = second compound 0.316 µM, first compound 0.00949 µM
[13] = second compound 0.316 µM, first compound 0.03 µM
[14] = second compound 0.316 µM, first compound 0.0949 µM
[15] = second compound 0.316 µM, first compound 0.3 µM
[16] = second compound 0.316 µM, first compound 0.949 µM
[17] = second compound 0.316 µM, first compound 3 µM
[18] = second compound 1 µM, first compound 0.00949 µM
[19] = second compound 1 µM, first compound 0.03 µM
[20] = second compound 1 µM, first compound 0.0949 µM
[21] = second compound 1 µM, first compound 0.3 µM
[22] = second compound 1 µM, first compound 0.949 µM
[23] = second compound 1 µM, first compound 3 µM
[24] = second compound 3.16 µM, first compound 0.00949 µM
[25] = second compound 3.16 µM, first compound 0.03 µM
[26] = second compound 3.16 µM, first compound 0.0949 µM
[27] = second compound 3.16 µM, first compound 0.3 µM
[28] = second compound 3.16 µM, first compound 0.949 µM
[29] = second compound 3.16 µM, first compound 3 µM
[30] = second compound 10 µM, first compound 0.00949 µM
[31] = second compound 10 µM, first compound 0.03 µM
[32] = second compound 10 µM, first compound 0.0949 µM
[33] = second compound 10 µM, first compound 0.3 µM
[34] = second compound 10 µM, first compound 0.949 µM
[35] = second compound 10 µM, first compound 3 µM
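Further: drug exposure lasted 7 days starting on day 3 after seeding.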
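Wherever viability, T/C is given: luminescence viability as percent of DMSO vehicle wells = 100%.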

Compound | IC50 [1] [nM] | IC50 [2] [nM] | IC50 [3] [nM] | IC50 [4] [nM] | IC50 [5] [nM] | viability, T/C [6] [%] | viability, T/C [7] [%] | viability, T/C [8] [%] | viability, T/C [9] [%] | viability, T/C [10] [%] | viability, T/C [11] [%] | viability, T/C [12] [%] | viability, T/C [13] [%] | viability, T/C [14] [%] | viability, T/C [15] [%] | viability, T/C [16] [%] | viability, T/C [17] [%] | viability, T/C [18] [%] | viability, T/C [19] [%] | viability, T/C [20] [%] | further results
NS(=O)(=O)OCC1CC(n2ccc3c(NC4CCc5ccccc54)ncnc32)CC1O (configuration not stated) + NC1CC1c1ccc(-c2cccc(O)c2)cc1 | 802 | 848 | 1140 | 769 | 532 | 102 | 112 | 115 | 105 | 40.5 | 12.2 | 100 | 113 | 114 | 105 | 44.1 | 13.4 | 108 | 115 | 98.7 | viability, T/C [21]: 102%; viability, T/C [22]: 56.8%; viability, T/C [23]: 13.9%; viability, T/C [24]: 99.7%; viability, T/C [25]: 114%; viability, T/C [26]: 102%; viability, T/C [27]: 105%; viability, T/C [28]: 37.7%; viability, T/C [29]: 14.1%; viability, T/C [30]: 95.4%; viability, T/C [31]: 99.5%; viability, T/C [32]: 93.8%; viability, T/C [33]: 69%; viability, T/C [34]: 30.5%; viability, T/C [35]: 10.9%
NS(=O)(=O)OCC1CC(n2ccc3c(NC4CCc5ccccc54)ncnc32)CC1O (configuration not stated) + NC1CCC(NC2CC2c2ccccc2)CC1 | 708 | 765 | 747 | 593 | 469 | 102 | 102 | 102 | 88.6 | 36.9 | 14.8 | 100 | 98.6 | 76.6 | 87.4 | 41.5 | 13.9 | 105 | 108 | 79.9 | viability, T/C [21]: 83%; viability, T/C [22]: 38.9%; viability, T/C [23]: 17.4%; viability, T/C [24]: 95.3%; viability, T/C [25]: 90%; viability, T/C [26]: 80%; viability, T/C [27]: 74.5%; viability, T/C [28]: 34.1%; viability, T/C [29]: 9.44%; viability, T/C [30]: 86.9%; viability, T/C [31]: 95.7%; viability, T/C [32]: 70.9%; viability, T/C [33]: 69.9%; viability, T/C [34]: 23.8%; viability, T/C [35]: 10.1%
CC(C)CC(NC(=O)CNC(=O)c1cc(Cl)ccc1Cl)B1OC(=O)CC(CC(=O)O)(C(=O)O)O1 (configuration not stated) | – | – | – | – | – | – | – | – | – | – | – | – | – | – | – | – | – | – | – | – | viability, T/C (compound 0.000316 µM): 105%; viability, T/C (compound 0.001 µM): 76.8% and 109%; viability, T/C (compound 0.00316 µM): 6.4% and 3.59%; viability, T/C (compound 0.01 µM): 1.38% and 0.62%; viability, T/C (compound 0.0316 µM): 0.11% and 0.19%; viability, T/C (compound 0.1 µM): 0.17% and 0.19%; IC50 (curve of compound): 1.55 nM and 1.88 nM
